Assay results from a melting point compilation (Tetko et al.; mined from patent text by program, amines drawn as free bases though some values may be those of a salt).

Compound	melting point [°C]
COc1ccc(C=O)c(O[Si](C)(C)C(C)(C)C)c1O[Si](C)(C)C(C)(C)C	74 to 75
COc1ccc2c(c1)C(C)(C)NC(=O)O2	178 to 180
O=C(NCc1ccc(F)cc1)Nc1ccc(CN2C(=O)[C@H]3CCC[C@H]3N(C(=O)CN3C(=O)c4ccccc4C3=O)c3ccccc32)cc1 (relative stereo)	154 to 156
O=C(O)Cc1c(Oc2ccc3c(c2)OCO3)cccc1Oc1ccc2c(c1)OCO2	176 to 177
CCCCCCCCCCCCNC(=O)CC(Br)C(=O)O (configuration not stated)	62 to 70
CCCCCCCCCCCCC1C=CC(Oc2ccc(C(=O)O)o2)=C2N=C3CCCCC3=C21 (configuration not stated)	110 to 112
CCN(CCCc1coc2c(OC)cccc12)C1COc2c(F)ccc(C(N)=O)c2C1 (configuration not stated)	125 to 128
Cc1ccc(C(=O)CC(=O)C(F)F)cc1Cl	40 to 41
CCc1cccc(C(C)C)c1N1C(=O)CCN(CC)C1=S	129 to 132
CCOC(=O)c1cc(CC)c2ccc(C(C)C)ccc1-2	48 to 49
CS(=O)(=O)Nc1ccc(C(N)=O)cc1Sc1ccc(F)cc1F	176 to 178
O=C(CC1CCN(CC2CC2)CC1)c1ccc(O)cc1	209 to 211
COC(=O)COc1ccc(NC(=O)CCc2ccc(C#N)cc2)cc1	141
CN(C)C1(c2ccccc2)CCC2(NCCc3c2[nH]c2ccccc32)C(Sc2ccccc2)C1 (configuration not stated)	171 to 173
CCCCCCc1ccc(O)c(C(=O)O)c1	83 to 84
CC(=O)SC[C@H](NC(=O)C(C)C)C(=O)NCCSC(=O)C(C)C	100 to 102
O=C(C=Cc1ccc(Cl)c(Cl)c1)C1C(=O)CCC1=O	190 to 191
CN(C)/C=C/C(=C(C#N)C#N)c1ccc2cc(N(C)C)ccc2c1	213 to 215
CN1CCCC(CC(=O)c2ccc(Cl)c(Cl)c2)C1 (configuration not stated)	69 to 71
CCOC(=O)C=C(C(=O)OCC)c1ccc(C(Br)Br)cc1	89 to 92.5
COc1cccc(N(C)C(=O)C(C)Br)c1 (configuration not stated)	55 to 56
O=C1CCCc2[nH]c3cc(F)ccc3c21	231 to 233
CCCc1nc(C)c2nnc3cc(OC)ccc3n12	159 to 162

Compound	melting point [°C]
COc1ccc(C2=NN(C3CCN(C(=O)CCl)CC3)C(=O)[C@@H]3CC=CC[C@H]23)cc1OC	104 to 106
CCOC1=NS(=O)(=O)c2cc(NC(=O)CC)ccc21	188 to 192
COc1ccc2nc(-n3ccnc3)nc(NCCSC)c2c1	168 to 178
COc1ccc(CNc2cc(Cl)ncc2C(=O)NCc2ncccn2)cc1Cl	134 to 136
CCCCCCCCCCCC#Cc1ccc(C=CC(=O)O)cc1	156 to 157
COC(=O)CCc1oc(=O)[nH]c1-c1ccc(Cl)cc1	147 to 148
CC(C)(C)c1cc(-c2cccs2)cc2c1OCC2(C)C	61 to 63
COc1cc(Nc2ccnc(Nc3cc(OC)c(OC)c(OC)c3)n2)cc(OC)c1OC	180
CCCC(=Cc1cccc([N+](=O)[O-])c1)[N+](=O)[O-]	45 to 47
COc1ccc(C)cc1NC(=O)Nc1ccc2c(c1)CCN(C(=O)Nc1ccc(OCCO)cc1C(F)(F)F)C2	122 to 124
NP(N)(=O)NC(=O)C=Cc1ccccc1	176 to 178
CC1=NN(CC2CC2)CC2=C3C1=NN(c1ccc(C(C)C)cc1Br)C(=O)N3CC2	89 to 90
Cc1c(Cc2nc(C(=O)O)cs2)n(S(=O)(=O)c2cccc(C(C)(C)C)c2)c2ccc(C(F)(F)F)cc12	60
C[Si](C)(C)C#Cc1ccc2c(c1)NC(=O)CO2	142
COCOc1cc2c(cc1C=O)C(C)(C)CCC2(C)C	84 to 85
CCOC(=O)CC[C@H](NC(=O)c1ccc(CNCc2cnc3nc(NC(=O)C(C)(C)C)nc(O)c3c2)cc1)C(=O)OCC	149 to 151
CCN(C(=O)C1CC1)c1cccc(-c2ccnc3ccnn23)c1	127 to 129
CC(=O)Nc1ncc2c(n1)-c1sc(NC(C)=O)nc1CC2	> 310
FC(F)(F)c1cccc(Nc2nccc(-c3ccnc(Cl)c3)n2)c1	169 to 171
COc1cc(C(C)C)c2c(c1)S(=O)(=O)N(COC(=O)c1cc(C)no1)C2=O	157 to 158
Cc1cc2[nH]c3ccncc3c(=O)n2n1	> 300
CC(C)C(C#N)c1ccc([N+](=O)[O-])cc1 (configuration not stated)	71 to 72
CCOC(=O)C(=O)NNC(=O)c1cc2cccc(N(C)S(=O)(=O)c3cccs3)c2[nH]1	133 to 134

Results, then the compound that gave them:

melting point [°C]	Compound
258 to 260	Cn1cc(C2=C(c3cccc4ccccc34)C(=O)NC2=O)c2ccccc21
86 to 89	Cc1ccc(/C=C(/C(=O)OC(C)(C)C)C(=O)c2ccccc2O)cc1
165 to 175	NC(=O)C[C@H](NS(=O)(=O)c1ccc2c(c1)Sc1ccccc1O2)C(=O)O
201 to 202	O=C(O)c1ccc(OCCC(c2ccccc2)(c2ccccc2)c2ccccc2)cc1
192	CC(C)c1ccc(S(=O)(=O)n2c(Cc3ccc(C(=O)O)cc3)cc3cc(Cl)ccc32)cc1
111 to 119	CN1CCN(c2cc(Cl)cc3c2c(=O)n(-c2ccccc2)c(=O)n3Cc2ccccc2)CC1
56.4	COc1cc(C=Cc2ccccc2)cc(OC)c1
170 to 171	CC1(C)N=C(N)N=C(N)N1OCc1cccc2ccccc12
184	COc1cc(N)c(Cl)cc1-c1nn(C2CCN(CCc3ccccc3)CC2)c(=O)o1
179 to 180	CCCOc1ccc2c(c1)C(c1ccccc1OCCC)C(C(=O)O)C2c1ccc2c(c1)OCO2 (configuration not stated)
127 to 129	O=S(=O)(c1ccc2ccc(Br)cc2c1)N(Cc1ccccc1)Cc1ccccc1
116 to 117	CCc1cc(COc2nn(Cc3ccccc3)cc2CO)ccc1OCc1nc(-c2ccco2)oc1C
172 to 175	O=C1c2ccccc2C(=O)N1CCN1CCCC1c1cccc(O)c1 (configuration not stated)
137 to 139	O=C1C=C(Br)C(CBr)(NCc2ccccc2)O1 (configuration not stated)
124 to 128	O=C(O)c1ccccc1C(=O)c1ccc(O)cc1
190	N[C@@H](Cc1c[nH]c2ccccc12)c1nc2c(C(F)(F)F)cccc2c(O)c1C(=O)Nc1nccs1
65 to 66	COCCC(=O)Nc1ccc(CCCc2ccccc2OCc2ccccc2)cc1
160 to 161	O=c1cc(-c2ccccc2)sc(N2CCOCC2)c1
111 to 112	CC(C)(C)c1ccc(NC(=O)Nc2ccc(Oc3cc(Cl)ncn3)cc2)cc1
119 to 120	O=C(CCN1CCN(c2ncc(F)cn2)CC1)Cc1ccc(F)c2ccccc12
94	O=C(OCc1ccnc2ccccc12)ON1C(=O)CCC1=O
250 to 251	N#Cc1cnc2cc3ccccc3cc2c1Nc1ccc(Oc2ccccc2)cc1
279 to 280	CC(C)c1cccc(C(C)C)c1NC(=O)Cc1c(-c2ccccc2)c2cc(Cl)ccc2n1C
45 to 46.5	O=CC=C(c1ccccc1)c1ccccc1
147 to 148	CN1CCCCC1CCc1ccccc1NC(=O)c1ccc(N)cc1 (configuration not stated)
> 250	O=C(NC1CC1)c1nc(-c2ccccc2)c(-c2ccc(=O)[nH]n2)s1
